Source: patent publication US11013696B2, “Lipids and lipid compositions for the delivery of active agents” (Novartis AG, priority 2013, dated 2021)
Counter-ions that a name gives are not always drawn.

Key:
[1] = siRNA encapsulation in lipid nanoparticles (SYBR Gold); assay type: physicochemical; conditions: Table 2; FVII siRNA in LNP with the cationic lipid
Description: The lipid nanoparticles (LNPs) were formed by mixing equal volumes of lipids dissolved in alcohol with siRNA dissolved in a citrate buffer by an impinging jet process. The lipid solution contains a cationic lipid compound of the invention, a helper lipid (cholesterol), an optional neutral lipid (DSPC) and a PEG (PEG) lipid at a concentration of 8-16 mg/mL with a target of 12 mg/mL in an alcohol. The siRNA to total lipid ratio is approximately 0.05 (wt/wt). Where a LNP formulation contains four lipid components, the molar ratios of the lipids ranges from 20 to 70 mole percent for the cationic lipid with a target of 40-60, the mole percent of helper lipid ranges from 20 to 70 with a target of 30 to 50, the mole percent of neutral lipid ranges from 0-30, the mole percent of PEG lipid has a range from 1 to 6 with a target of 2 to 5. The concentration of siRNA solution ranges from 0.7 to 1.0 mg/mL with a target of 0.8 to 0.9 mg/mL in a sodium citrate: sodium chloride buffer pH 4-6, with a target of 4.5-5.5. The LNPs are formed by mixing equal volumes of lipid solution in ethanol with siRNA dissolved in a citrate buffer by an impinging jet process through a mixing device with ID ranging from 0.25 to 2.0 mm at a flow rate from 10 to 640 mL/min. The mixed LNP solution is held at room temperature for 0-24 hrs prior to a dilution step. The solution is then concentrated and diafiltered with suitable buffer by ultrafiltration or dialysis process using membranes with a MW cutoff from 30 to 500 KD. The final product is sterile filtered and stored at 4° C.
The lipid nanoparticles (LNPs) were formed by mixing equal volumes of lipids dissolved in alcohol with siRNA dissolved in a citrate buffer by an impinging jet process. The lipid solution contains a cationic lipid compound of the invention, a helper lipid (cholesterol), an optional neutral lipid (DSPC) and a stealth lipid (5010, S024, S027, or S031) at a concentration of 8-16 mg/mL with a target of 12 mg/mL in an alcohol. The siRNA to total lipid ratio is approximately 0.05 (wt/wt). Where a LNP formulation contains four lipid components, the molar ratios of the lipids ranges from 20 to 70 mole percent for the cationic lipid with a target of 40-60, the mole percent of helper lipid ranges from 20 to 70 with a target of 30 to 50, the mole percent of neutral lipid ranges from 0-30, the mole percent of PEG lipid has a range from 1 to 6 with a target of 2 to 5. The concentration of siRNA solution ranges from 0.7 to 1.0 mg/mL with a target of 0.8 to 0.9 mg/mL in a sodium citrate: sodium chloride buffer pH 4-6, with a target of 4.5-5.5. The LNPs are formed by mixing equal volumes of lipid solution in ethanol with siRNA dissolved in a citrate buffer by an impinging jet process through a mixing device with ID ranging from 0.25 to 2.0 mm at a flow rate from 10 to 640 mL/min. The mixed LNP solution is held at room temperature for 0-24 hrs prior to a dilution step. The solution is then concentrated and diafiltered with suitable buffer by ultrafiltration process using membranes with a MW cutoff from 30 to 500 KD. The final product is sterile filtered and stored at 4° C.
SYBR Gold flourescence reagent is used for the determination of siRNA encapsulation in the DLP's. DLP's with and without triton x-100 are used to determine the free siRNA and total siRNA amounts. DLP's samples with and without triton X-100 were excited at 485 nm and flourescence emission is measured at 530 nm. Encapsulation efficiency is calculated based on the following formula: Encapsulation efficiency:[([…])/(total siRNA concentration)]×100% Encapsulation Data

[2] = Percent encapsulation of mRNA in lipid nanoparticles (Quant-iT Ribogreen); assay type: physicochemical; conditions: Table 2; leptin mRNA in LNP with the cationic lipid
Description: All equipment and disposable supplies are certified free of RNase activity by the manufacturer or rendered RNase free by use of the RNaseZap reagent (LifeTechnologies). mRNA is encapsulated at a cationic lipid amine to mRNA phosphate (N:P) molar ratio of 4:1. Lipids (cationic lipid, DSPC, cholesterol and lipidated PEG or stealth lipid) are dissolved in ethanol. The molar ratios are 40:10:38:2, respectively. The mixture is sonicated briefly, then gently agitated for 5 minutes and then maintained at 37° C. until use. mRNA is exchanged into citrate buffer pH 5.8-6.0 by use of Amicon Ultra-15 centrifugal concentrators, and the final concentration is adjusted to 0.5 mg/ml and held at 37° C. until use. An equal volume of lipids in ethanol, mRNA in citrate buffer, and citrate buffer alone are drawn into disposable syringes. Tubing leading from syringes containing lipids and mRNA are attached to the T junction, and tubing leading from the syringe containing citrate buffer alone is paired with the tubing exiting the T-junction over a collection vessel containing a stir bar on an active stir plate. Syringes are placed in a syringe pump set to expel contents at a flow rate of 1 ml per minute.
The pump is activated, and the collected mRNA in lipid nanoparticles is transferred to SnakeSkin dialysis tubing (10,000 MWCO, Thermo Scientific). Material is dialyzed against RNAse- and pyrogen-free 1× phosphate buffered saline overnight at 4° C.
Percent encapsulation of mRNA in lipid nanoparticles is determined using the Quant-iT Ribogreen RNA Assay kit (Life Technologies). The LNP-mRNA suspension is assayed in buffer (mRNA outside the particle), and buffer plus Triton X-100 detergent (total mRNA). The difference calculated is the mRNA inside the particle. Prepare a 1000 ng/mL stock from the RNA provided in the kit and use this to generate a standard curve (0 ng/ml, 15.63-1000 ng/ml) in TE and TE+0.75% Triton X-100. Prepare LNP-mRNA samples in TE buffer and TE buffer +0.75% Triton X-100 with appropriate dilution so that reading is in the range of standard curve (400-2,000 fold). In a 384-well plate (Costar non-treated #3573) add 0.04 ml of standard (in duplicate) or sample (in triplicate) per well. Dilute Ribogreen reagent 240-fold in TE buffer and add 0.06 ml per well. Mix contents of wells and measure fluorescence (excitation=480 nm, emission=520 nm). Subtract background values (no RNA) from standard and test sample values and determine the concentrations of RNA in the samples using the standard curves. Determine the percent encapsulation of the sample by dividing the difference in concentrations between sample+triton and sample in buffer alone by the sample+triton concentration.

| SMILES | % encapsulation siRNA FVII [1] [%] | % encapsulation mRNA Leptin [2] [%] |
| --- | --- | --- |
| CCCCCCCCCCCCC(CCOC(=O)CCCCCCC(OCC(CCC)CCC)OCC(CCC)CCC)OC(=O)OCCCN(C)CC (stereo not shown) [Example 22, 3-(((3-(ethyl(methyl)amino)propoxy)carbonyl)oxy)pentadecyl 8,8-bis((2-propylpentyl)oxy)octanoate] | 91.7 | 99.2 |
| CCCCCCCCCCCCC(CCOC(=O)CCCCCC(COC(=O)CCCCCCC)COC(=O)CCCCCCC)OC(=O)OCCCN(CC)CC (stereo not shown) [Example 6, 2-(10-dodecyl-3-ethyl-8,14-dioxo-7,9,13-trioxa-3-azanonadecan-19-yl)propane-1,3-diyl dioctanoate] | 91.7 | 24.0 |
| CCCCCCCCCCCCC(CCOC(=O)CCCCC(OCCCCCC)OCCCCCC)OC(=O)OCCCN(CC)CC (stereo not shown) [Example 17, 3-(((3-(diethylamino)propoxy)carbonyl)oxy)pentadecyl 6,6-bis(hexyloxy)hexanoate] | 88.3 | 84.6 |
| CCCCCCCCCCCCC(CCOC(=O)CCC(OCC(CCC)CCC)OCC(CCC)CCC)OC(=O)OCCCN(C)C (stereo not shown) [Example 15, 3-(((3-(dimethylamino)propoxy)carbonyl)oxy)pentadecyl 4,4-bis((2-propylpentyl)oxy)butanoate] | 91.0 | 98.9 |
| CCCCC/C=C\C/C=C\CCCCCCCC(=O)OCCN(CCOC(=O)CCCCCCC/C=C\C/C=C\CCCCC)C(=O)CCC(CCCCCCCCCCCC)OC(=O)OCCCN(CC)CC (stereo not shown) [Example 103, (9Z,12Z)-10-dodecyl-3-ethyl-14-(2-((9Z,12Z)-octadeca-9,12-dienoyloxy)ethyl)-8,13-dioxo-7,9-dioxa-3,14-diazahexadecan-16-yl octadeca-9,12-dienoate] | 83.2 | 72.5 |
| CCCCCCCCCCCCC(CCOC(=O)CCC(OCCCCCCCC)OCCCCCCCC)OC(=O)OCCCN(CC)CC (stereo not shown) [Example 11, 3-(((3-(diethylamino)propoxy)carbonyl)oxy)pentadecyl 4,4-bis(octyloxy)butanoate] | 89.7 | 98.2 |
| CCCCCCCCCCCCC(CCOC(=O)CCCCCCC(COC(=O)CCCCCCC)COC(=O)CCCCCCC)OC(=O)OCCCN(CC)CC (stereo not shown) [Example 9, 2-(10-dodecyl-3-ethyl-8,14-dioxo-7,9,13-trioxa-3-azaicosan-20-yl)propane-1,3-diyl dioctanoate] | 91.0 | 96.6 |
| CCCCCCCCCCCCC(CCOC(=O)CCC(OCC(CCC)CCC)OCC(CCC)CCC)OC(=O)OCCCN(CC)CC (stereo not shown) [Example 13, 3-(((3-(diethylamino)propoxy)carbonyl)oxy)pentadecyl 4,4-bis((2-propylpentyl)oxy)butanoate] | 90.3 | 81.1 |
| CCCCC/C=C\C/C=C\CCCCCCCC(=O)OCCC(CCCCCCCCCCCC)OC(=O)OCCCN(C)CC (stereo not shown) [Example 45, (9Z,12Z)-3-(((3-(ethyl(methyl)amino)propoxy)carbonyl)oxy)pentadecyl octadeca-9,12-dienoate] | 86.4 | 88.2 |
| CCCCCCCCCCCCC(CCOC(=O)CCCCCCC(COC(=O)CCCCCCC)COC(=O)CCCCCCC)OC(=O)OCCCN(C)C (stereo not shown) [Example 10, 2-(9-dodecyl-2-methyl-7,13-dioxo-6,8,12-trioxa-2-azanonadecan-19-yl)propane-1,3-diyl dioctanoate] | 89.9 | 88.4 |
| CCCCCCCCCCCCCC(=O)OCC(COC(=O)CCCCCCCCCCCCC)OC(=O)CCC(CCCCCCCCCCCC)OC(=O)OCCCN(CC)CC (stereo not shown) [Example 84, 2-((4-(((3-(diethylamino)propoxy)carbonyl)oxy)hexadecanoyl)oxy)propane-1,3-diyl ditetradecanoate] | 77.5 | 83.1 |
| CCCCCCCCCCCCC(CCOC(=O)CCCCCCC(OCC(CCC)CCC)OCC(CCC)CCC)OC(=O)OCCCN(C)C (stereo not shown) [Example 23, 3-(((3-(dimethylamino)propoxy)carbonyl)oxy)pentadecyl 8,8-bis((2-propylpentyl)oxy)octanoate] | 92.0 | 98.0 |
| CCCCCCCCCCCCC(CCOC(=O)CCC(OCC(CCC)CCC)OCC(CCC)CCC)OC(=O)OCCCN(C)CC (stereo not shown) [Example 14, 3-(((3-(ethyl(methyl)amino)propoxy)carbonyl)oxy)pentadecyl 4,4-bis((2-propylpentyl)oxy)butanoate] | 88.0 | 99.4 |
| CCCCC/C=C\C/C=C\CCCCCCCCC(CCOC(=O)CC(CCCCCCCC)CCCCCCCC)OC(=O)CCCN(C)C (stereo not shown) [Example 50, (12Z,15Z)-3-((4-(dimethylamino)butanoyl)oxy)henicosa-12,15-dien-1-yl 3-octylundecanoate, formate salt] | 85.3 |  |
| CCCCCCCCC(CCCCCCCC)CC(=O)OCCC(CCCCCCCCCCOC(=O)CCCCCCC)OC(=O)OCCCN(C)C (stereo not shown) [Example 61, 3-(((3-(dimethylamino)propoxy)carbonyl)oxy)-13-(octanoyloxy)tridecyl 3-octylundecanoate] | 85.5 |  |
